Where two headings read alike, the source gives them in different places. One block for each compound: values may come before it.
How the values were obtained:
F508del = biological target: T1, F508del (Homo sapiens, UniProt P13569, DEL508-508); assay: 3T3 assay: membrane potential optical assay for F508del correction in NIH 3T3 cells; assay type: cell-based
T1 construct: expressed in transfected cells
Text: 1. Membrane Potential Optical Methods for Assaying F508del Modulation Properties of Compounds
The assay utilizes fluorescent voltage sensing dyes to measure changes in membrane potential using a fluorescent plate reader (e.g., FLIPR III, Molecular Devices, Inc.) as a readout for increase in functional F508del in NIH 3T3 cells. The driving force for the response is the creation of a chloride ion gradient in conjunction with channel activation by a single liquid addition step after the cells have previously been treated with compounds and subsequently loaded with a voltage sensing dye.
2. Identification of Corrector Compounds
To identify correctors of F508del, a single-addition HTS assay format was developed. This HTS assay utilizes fluorescent voltage sensing dyes to measure changes in membrane potential on the FLIPR III as a measurement for increase in gating (conductance) of F508del in F508del NIH 3T3 cells. The F508del NIH 3T3 cell cultures were incubated with the corrector compounds at a range of concentrations for 18-24 hours at 37° C., and subsequently loaded with a redistribution dye. The driving force for the response is a Cl^− ion gradient in conjunction with channel activation with forskolin in a single liquid addition step using a fluorescent plate reader such as FLIPR III.
Bath Solution #1: (in mM) NaCl 160, KCl 4.5, CaCl2) 2, MgCl2 1, HEPES 10, pH 7.4 with NaOH.
Chloride-free bath solution: Chloride salts in Bath Solution #1 (above) are substituted with gluconate salts.
NIH3T3 mouse fibroblasts stably expressing F508del are used for optical measurements of membrane potential. The cells are maintained at 37° C. in 5% CO2 and 90% humidity in Dulbecco's modified Eagle's medium supplemented with 2 mM glutamine, 10% fetal bovine serum, 1×NEAA, b-ME, 1×pen/strep, and 25 mM HEPES in 175 cm^2 culture flasks. For all optical assays, the cells were seeded at ˜20,000/well in 384-well matrigel-coated plates. For the correction assays, the cells are cultured at 37° C. with and without compounds for 16-24 hours.

CFTR [1] = biological target: T2, CFTR (Homo sapiens, UniProt P13569); assay: Membrane Potential Dye, Enteroid Assay A; assay type: cell-based; conditions: for EC50: read-out: Ent. A EC50
T2 sequence (P13569 with tags, fused parts or gaps DEL508-508): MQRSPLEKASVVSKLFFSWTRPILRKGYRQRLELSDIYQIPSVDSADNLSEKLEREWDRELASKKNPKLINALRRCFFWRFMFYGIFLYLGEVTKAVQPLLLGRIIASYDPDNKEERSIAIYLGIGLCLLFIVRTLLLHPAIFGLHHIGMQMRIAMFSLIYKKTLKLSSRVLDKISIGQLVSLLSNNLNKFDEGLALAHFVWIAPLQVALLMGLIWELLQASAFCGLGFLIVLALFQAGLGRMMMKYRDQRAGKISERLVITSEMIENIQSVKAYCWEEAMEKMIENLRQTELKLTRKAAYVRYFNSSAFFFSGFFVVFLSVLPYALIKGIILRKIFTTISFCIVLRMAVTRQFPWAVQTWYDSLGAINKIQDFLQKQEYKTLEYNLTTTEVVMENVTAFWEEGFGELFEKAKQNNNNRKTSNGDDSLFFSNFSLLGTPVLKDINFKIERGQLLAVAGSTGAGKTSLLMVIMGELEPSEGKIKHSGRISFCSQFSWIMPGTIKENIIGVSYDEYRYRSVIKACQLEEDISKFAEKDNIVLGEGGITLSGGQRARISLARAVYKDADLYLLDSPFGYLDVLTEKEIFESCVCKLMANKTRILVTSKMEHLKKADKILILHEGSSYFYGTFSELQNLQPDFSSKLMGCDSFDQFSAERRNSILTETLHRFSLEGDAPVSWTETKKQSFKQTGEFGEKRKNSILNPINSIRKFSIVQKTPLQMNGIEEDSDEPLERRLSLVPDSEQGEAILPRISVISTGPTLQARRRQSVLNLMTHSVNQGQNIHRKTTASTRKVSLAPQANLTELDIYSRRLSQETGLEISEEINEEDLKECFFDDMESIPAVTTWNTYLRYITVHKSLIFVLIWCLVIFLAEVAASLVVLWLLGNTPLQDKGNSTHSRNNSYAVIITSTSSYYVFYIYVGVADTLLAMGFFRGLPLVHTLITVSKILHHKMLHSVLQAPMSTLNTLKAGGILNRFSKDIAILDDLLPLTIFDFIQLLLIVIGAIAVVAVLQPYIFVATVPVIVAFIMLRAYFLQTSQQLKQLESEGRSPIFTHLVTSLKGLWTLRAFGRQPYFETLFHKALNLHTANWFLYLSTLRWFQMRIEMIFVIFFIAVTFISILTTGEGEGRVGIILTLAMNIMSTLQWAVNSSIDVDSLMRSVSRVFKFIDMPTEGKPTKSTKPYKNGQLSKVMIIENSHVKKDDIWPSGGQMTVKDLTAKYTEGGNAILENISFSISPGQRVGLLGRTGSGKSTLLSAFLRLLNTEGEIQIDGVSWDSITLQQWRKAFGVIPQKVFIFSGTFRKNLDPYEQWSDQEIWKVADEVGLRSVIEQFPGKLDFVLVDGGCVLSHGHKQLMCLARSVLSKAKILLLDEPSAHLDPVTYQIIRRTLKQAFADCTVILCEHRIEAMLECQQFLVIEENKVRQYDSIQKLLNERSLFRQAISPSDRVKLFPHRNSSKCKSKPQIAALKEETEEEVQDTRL
Outline: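 Enteroid cells were loaded with methyl oxonol membrane potential dye (plus CaCCinh-A01 and Chicago Sky Blue) for 25 min at room temperature. Chloride transport was started by switching to chloride-free gluconate stimulation solution, with fluorescence read for 15 min. Activity was expressed as % of a triple-combination CFTR modulator control (3 μM, 3 μM, 300 nM acute).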

CFTR [2] = biological target: T2, CFTR; assay: Membrane Potential Dye, Enteroid Assay B; assay type: cell-based; conditions: for EC50: read-out: Ent. B EC50
Outline: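 Enteroid cells loaded 25 min at room temperature with 20 μM methyl oxonol plus 30 μM CaCCinh-A01 and 30 μM Chicago Sky Blue, then switched to chloride-free gluconate buffer. Chloride transport was started by chloride-free stimulation solution, with fluorescence read for 15 min.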

[3] = NIH 3T3 cells, F508del correction

T1 sequence (P13569 with tags, fused parts or gaps DEL508-508): as above

SMILES: Cc1cccc(C)c1-c1cc2nc(n1)NS(=O)(=O)c1cccc(c1C)C(=O)N[C@H](CC1CCCCC1)CO2 [Compound 75, (11R)-11-(Cyclohexylmethyl)-6-(2,6-dimethylphenyl)-18-methyl-9-oxa-2λ^6-thia-3,5,12,19-tetraazatricyclo[12.3.1.14,8]nonadeca-1(17),4(19),5,7,14(18),15-hexaene-2,2,13-trione]
ring closure, yield after HPLC (from Cc1cccc(C)c1-c1cc(OC[C@H](N)CC2CCCCC2)nc(NS(=O)(=O)c2cccc(C(=O)O)c2C)n1, amide bond, 13-membered ring, HATU/TEA, DMF, 40.1 mM, 0.42 h): 8%
Emax (F508del; NIH3T3, Table 8, read-out: 3T3 Max Activity): > 60%
EC50 (F508del; Table 8): < 1 µM
Ent. A Max Activity (CFTR [1]; Table 8): +++ (+++ is >60%)
EC50 (CFTR [1]; Table 8): < 1 µM

SMILES: Cc1cccc(C)c1-c1cc2nc(n1)NS(=O)(=O)c1cccc(c1)C(=O)N[C@H](CC(C)C)CO2 [Compound 96, (11R)-6-(2,6-Dimethylphenyl)-11-isobutyl-2,2-dioxo-9-oxa-2λ^6-thia-3,5,12,19-tetrazatricyclo[12.3.1.14,8]nonadeca-1(18),4(19),5,7,14,16-hexaen-13-one]
ring closure, yield after HPLC (from Cc1cccc(C)c1-c1cc(OC[C@H](N)CC(C)C)nc(NS(=O)(=O)c2cccc(C(=O)O)c2)n1, amide bond, 13-membered ring, HATU/TEA, DMF, 31.8 mM, 25.0 °C, 3.0 h): 57%
EC50 (F508del; [3]): < 1 µM
Ent. A Max Activity (CFTR [1]; Enteroid Assay A): +++ (+++ is >600%)
EC50 (CFTR [1]; Enteroid Assay A): < 1 µM
EC50 (CFTR [2]; Enteroid Assay B): < 1 µM

SMILES: Cc1cccc(C)c1-c1cc2nc(n1)NS(=O)(=O)c1cccc(c1)C(=O)NC[C@@H](c1ccccc1)O2 [Compound 25, (10R)-6-(2,6-Dimethylphenyl)-2,2-dioxo-10-phenyl-9-oxa-2λ^6-thia-3,5,12,19-tetrazatricyclo[12.3.1.14,8]nonadeca-1(18),4(19),5,7,14,16-hexaen-13-one]
ring closure, yield after HPLC (from Cc1cccc(C)c1-c1cc(O[C@@H](CN)c2ccccc2)nc(NS(=O)(=O)c2cccc(C(=O)O)c2)n1, amide bond, 13-membered ring, HATU/DIEA, DMF, 25.9 mM, 25.0 °C, 1.0 h, 2 steps): 23%
Ent. A Max Activity (CFTR [1]; Enteroid Assay A): +++ (+++ is >600%)
EC50 (CFTR [1]; Enteroid Assay A): < 1 µM
Ent. B Max Activity (CFTR [2]; Enteroid Assay B): ++ (++ is 30-60%)
EC50 (CFTR [2]; Enteroid Assay B): < 1 µM

SMILES: Cc1cccc(C)c1-c1cc2nc(n1)NS(=O)(=O)c1cccc(c1)NC(=O)Nc1cccc(c1)O2 [Compound 1, 5-(2,6-Dimethylphenyl)-9,9-dioxo-2-oxa-9λ^6-thia-6,8,15,17,24-pentazatetracyclo[16.3.1.13,7.110,14]tetracosa-1(21),3,5,7(24),10(23),11,13,18(22),19-nonaen-16-one]
ring closure, yield after HPLC (from 3-amino-N-[4-(3-aminophenoxy)-6-(2,6-dimethylphenyl)pyrimidin-2-yl]benzenesulfonamide (Dihydrochloride salt), crosslinker bond, 15-membered ring, 1,3-dimethyl-tetrahydro-pyrimidin-2-one, 26.2 mM): 13%
EC50 (F508del; [3]): 1 to 3 µM
Ent. A Max Activity (CFTR [1]; Enteroid Assay A): ++ (++ is 30-60%)
EC50 (CFTR [1]; Enteroid Assay A): 1 to 3 µM

SMILES: Cc1cccc(C)c1-c1cc2nc(n1)NS(=O)(=O)c1cccc(c1)C(=O)N[C@H](CC1CCC1)CO2 [Compound 113, (11R)-11-(cyclobutylmethyl)-6-(2,6-dimethylphenyl)-9-oxa-2λ^6-thia-3,5,12,19-tetraazatricyclo[12.3.1.14,8]nonadeca-1(17),4,6,8(19),14(18),15-hexaene-2,2,13-trione]
ring closure, yield after HPLC (from Cc1cccc(C)c1-c1cc(OC[C@H](N)CC2CCC2)nc(NS(=O)(=O)c2cccc(C(=O)O)c2)n1, amide bond, 13-membered ring, HATU/DIEA, DMF, 65.5 mM, 25.0 °C, 1.0 h, 2 steps): 21%
EC50 (F508del; [3]): < 1 µM
Ent. A Max Activity (CFTR [1]; Enteroid Assay A): +++ (+++ is >600%)
EC50 (CFTR [1]; Enteroid Assay A): < 1 µM

SMILES: Cc1cccc(C)c1-c1cc2nc(n1)NS(=O)(=O)c1cncc(n1)C(=O)N[C@H](CC(C)C)CO2 [Compound 70, (11R)-6-(2,6-dimethylphenyl)-11-isobutyl-2,2-dioxo-9-oxa-2λ^6-thia-3,5,12,16,18,19-hexazatricyclo[12.3.1.14,8]nonadeca-1(18),4(19),5,7,14,16-hexaen-13-one]
ring closure, yield after HPLC (from Cc1cccc(C)c1-c1cc(OC[C@H](N)CC(C)C)nc(NS(=O)(=O)c2cncc(C(=O)O)n2)n1, amide bond, 13-membered ring, HATU/DIEA, DMF, 18.6 mM, 25.0 °C, 25.0 h): 29%
Ent. B Max Activity (CFTR [2]; Table 9): +++ (+++ is >60%)
EC50 (CFTR [2]; Table 9): < 1 µM

SMILES: Cc1cccc(COCc2ccccc2)c1-c1cc2nc(n1)NS(=O)(=O)c1cccc(c1)C(=O)N[C@H](CC(C)C)CO2 [Compound 106, (11R)-6-[2-(benzyloxymethyl)-6-methyl-phenyl]-11-isobutyl-2,2-dioxo-9-oxa-2λ^6-thia-3,5,12,19-tetrazatricyclo[12.3.1.14,8]nonadeca-1(18),4(19),5,7,14,16-hexaen-13-one]
ring closure, yield after HPLC (from Cc1cccc(COCc2ccccc2)c1-c1cc(OC[C@H](N)CC(C)C)nc(NS(=O)(=O)c2cccc(C(=O)O)c2)n1, amide bond, 13-membered ring, HATU/DIEA, DMF, 48.7 mM, 25.0 °C, 0.5 h): 30%
Ent. A Max Activity (CFTR [1]; Table 9): +++ (+++ is >60%)
EC50 (CFTR [1]; Table 9): < 1 µM

The next lines start with results.

EC50 (F508del; [3]): < 1 µM
Ent. A Max Activity (CFTR [1]; Enteroid Assay A): +++ (+++ is >600%)
EC50 (CFTR [1]; Enteroid Assay A): < 1 µM
SMILES: Cc1cc2cc(c1)S(=O)(=O)Nc1nc(cc(-c3c(C)cccc3C)n1)OC[C@@H](CC1CCCCC1)NC2=O [Compound 74, (11R)-11-(Cyclohexylmethyl)-6-(2,6-dimethylphenyl)-16-methyl-2,2-dioxo-9-oxa-2λ^6-thia-3,5,12,19-tetrazatricyclo[12.3.1.14,8]nonadeca-1(18),4(19),5,7,14,16-hexaen-13-one]
ring closure, yield after HPLC (from Cc1cc(C(=O)O)cc(S(=O)(=O)Nc2nc(OC[C@H](N)CC3CCCCC3)cc(-c3c(C)cccc3C)n2)c1, amide bond, 13-membered ring, HATU/TEA, DMF, 39.0 mM, 0.42 h): 28%

Ent. B Max Activity (CFTR [2]; Table 9): +++ (+++ is >60%)
EC50 (CFTR [2]; Table 9): 1 to 3 µM
SMILES: Cc1cccc(C)c1-c1cc2nc(n1)NS(=O)(=O)c1cc(n(C)n1)C(=O)N[C@H](CC(C)C)CO2 [Compound 76, (10R)-15-(2,6-Dimethylphenyl)-10-isobutyl-6-methyl-3,3-dioxo-12-oxa-3λ^6-thia-2,5,6,9,16,17-hexazatricyclo[11.3.1.14,7]octadeca-1(17),4,7(18),13,15-pentaen-8-one]
ring closure, yield after HPLC (from Cc1cccc(C)c1-c1cc(OC[C@H](N)CC(C)C)nc(NS(=O)(=O)c2cc(C(=O)O)n(C)n2)n1, amide bond, 13-membered ring, HATU/DIEA, DMF, 3.1 mM, 25.0 °C, 2.0 h): 33%

EC50 (F508del; [3]): < 1 µM
Ent. A Max Activity (CFTR [1]; Enteroid Assay A): +++ (+++ is >600%)
EC50 (CFTR [1]; Enteroid Assay A): < 1 µM
SMILES: Cc1cccc(C)c1-c1cc2nc(n1)NS(=O)(=O)c1cccc(c1)C(=O)N[C@H](CCC(C)C)CO2 [Compound 46, (11R)-6-(2,6-dimethylphenyl)-11-(3-methylbutyl)-9-oxa-2λ^6-thia-3,5,12,19-tetraazatricyclo[12.3.1.14,8]nonadeca-1(17),4,6,8(19),14(18),15-hexaene-2,2,13-trione]
ring closure, yield after HPLC (from Cc1cccc(C)c1-c1cc(OC[C@H](N)CCC(C)C)nc(NS(=O)(=O)c2cccc(C(=O)O)c2)n1, amide bond, 13-membered ring, HATU/DIEA, DMF, 9.1 mM, 25.0 °C, 1.0 h, 3 steps): 3%

Ent. A Max Activity (CFTR [1]; Enteroid Assay A): +++ (+++ is >600%)
EC50 (CFTR [1]; Enteroid Assay A): 3 to 30 µM
Ent. B Max Activity (CFTR [2]; Enteroid Assay B): ++ (++ is 30-60%)
EC50 (CFTR [2]; Enteroid Assay B): 3 to 30 µM
SMILES: Cc1cccc(C)c1-c1cc2nc(n1)NS(=O)(=O)c1cccc(c1)C(=O)NC[C@@H](C)O2 [Compound 28, (10R)-6-(2,6-dimethylphenyl)-10-methyl-2,2-dioxo-9-oxa-2λ^6-thia-3,5,12,19-tetrazatricyclo[12.3.1.14,8]nonadeca-1(18),4(19),5,7,14,16-hexaen-13-one]
ring closure, yield after HPLC (from Cc1cccc(C)c1-c1cc(O[C@H](C)CN)nc(NS(=O)(=O)c2cccc(C(=O)O)c2)n1, amide bond, 13-membered ring, HATU/DIEA, DMF, 46.7 mM, 25.0 °C, 1.0 h, 2 steps): 46%

EC50 (CFTR [1]; Table 8): < 1 µM
SMILES: Cc1cccc(C)c1-c1cc2nc(n1)NS(=O)(=O)c1cccc(c1)C(=O)NCC(c1ccc(C(C)(C)C)cn1)O2 (centres unmarked) [Compound 6, 10-(5-tert-Butyl-2-pyridyl)-6-(2,6-dimethylphenyl)-2,2-dioxo-9-oxa-2λ^6-thia-3,5,12,19-tetrazatricyclo[12.3.1.14,8]nonadeca-1(18),4(19),5,7,14,16-hexaen-13-one]
ring closure, yield after HPLC (from Cc1cccc(C)c1-c1cc(OC(CN)c2ccc(C(C)(C)C)cn2)nc(NS(=O)(=O)c2cccc(C(=O)O)c2)n1, amide bond, 13-membered ring, HATU/DIEA, DMF, 40.9 mM, 25.0 °C, 0.25 h): 33%

— patent US20230382924A1, “MODULATORS OF CYSTIC FIBROSIS TRANSMEMBRANE CONDUCTANCE REGULATOR” (VERTEX PHARMACEUTICALS INCORPORATED, priority 2020, published 2023)
